The text below walks through data of PubChem BioAssay (NCI).

Among the test systems are 786-0 renal; COLO 205 colon; HCT-15 colon; HS 578T breast; HT29 colon; K-562 leukemia; M14 melanoma; SK-OV-3 ovarian; SN12C renal; SNB-75 CNS.
Test in all cases: NCI-60 cell line screen, 48 h

SMILES strings stand for the structures.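 Cells were grown in 96-well plates and exposed to each compound for 48 hours at five concentrations; endpoints were interpolated linearly between bracketing concentrations, or set to the highest concentration if not reached. The concentration for 50% growth inhibition is given as GI50. TGI: concentration producing complete growth inhibition.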 A value given as a limit tells only on which side of the number the result lay.

As for `O=C1/C(=C/c2ccc(Cl)cc2)CN(Cc2cn(CCCNc3ccnc4cc(Cl)ccc34)nn2)C/C1=C\c1ccc(Cl)cc1`, the GI50 with 786-0 renal was 0.754 µM; in the assay with COLO 205 colon, 0.565 µM; in the assay with HCT-15 colon, 0.283 µM; in the assay with HS 578T breast, 1.39 µM; in the assay with HT29 colon, 0.27 µM; in the assay on K-562 leukemia it was 0.289 µM. The GI50 was 1.72 µM in the assay with M14 melanoma, 1.84 µM in the assay on SK-OV-3 ovarian, 0.96 µM with SN12C renal and 1.39 µM in the assay on SNB-75 CNS. The TGI in the assay on 786-0 renal is 2.06 µM; with COLO 205 colon, 1.8 µM; with HCT-15 colon it was 0.926 µM; with HS 578T breast, 5.95 µM; in the assay with HT29 colon it was 0.775 µM; in the assay on K-562 leukemia, 3.79 µM. In addition, the TGI in the assay on M14 melanoma was 3.68 µM; with SK-OV-3 ovarian it was 3.52 µM; in the assay with SN12C renal it was 2.77 µM; in the assay with SNB-75 CNS, 2.92 µM.

`O=C(O)c1ccc(CSc2nc3ccccc3[nH]2)cc1`: the GI50 with 786-0 renal, with COLO 205 colon, with HCT-15 colon, with HS 578T breast, in the assay with HT29 colon and in the assay on K-562 leukemia was over 100 µM throughout. Further, the GI50 with M14 melanoma, with SK-OV-3 ovarian, in the assay on SN12C renal and with SNB-75 CNS was over 100 µM throughout. Also, the TGI with 786-0 renal, in the assay with COLO 205 colon, in the assay with HCT-15 colon, with HS 578T breast, in the assay with HT29 colon and in the assay with K-562 leukemia was over 100 µM in each case. In addition, the TGI in the assay on M14 melanoma, in the assay on SK-OV-3 ovarian, in the assay with SN12C renal and with SNB-75 CNS was over 100 µM throughout.

As for `O=C(CCN1CCCCC1)c1csc2ccccc12`, the TGI in the assay on 786-0 renal, in the assay on COLO 205 colon, in the assay with HCT-15 colon, with HS 578T breast, in the assay on HT29 colon and with K-562 leukemia was over 100 µM in each case. The TGI with M14 melanoma, with SK-OV-3 ovarian, in the assay on SN12C renal and in the assay on SNB-75 CNS was over 100 µM each time.

With `c1cc[n+](Cc2c3ccccc3cc3c2ccc2ccccc23)cc1`, the GI50 with 786-0 renal was 4.83 µM; with COLO 205 colon it was 1.88 µM; in the assay on HCT-15 colon it was over 100 µM; with HS 578T breast, 1.96 µM; in the assay on HT29 colon, 2.77 µM; with K-562 leukemia it was 3.21 µM. For the same compound, the GI50 is 5.05 µM with M14 melanoma, 13.6 µM with SK-OV-3 ovarian, 0.506 µM with SN12C renal and 1.35 µM in the assay on SNB-75 CNS. The TGI in the assay on 786-0 renal is 26.1 µM; in the assay with COLO 205 colon, 5.24 µM; in the assay on HCT-15 colon it was over 100 µM; with HS 578T breast, 8.65 µM; in the assay with HT29 colon it was 11.2 µM; with K-562 leukemia, 17.8 µM. The TGI in the assay with M14 melanoma was determined as 19.7 µM; in the assay on SK-OV-3 ovarian it was 59.1 µM; in the assay on SN12C renal, 4.73 µM; in the assay with SNB-75 CNS, 5.36 µM.
